Experimental data: PubChem BioAssay AID2060361 (Molecular Pharmacology Branch, DTP, NCI, 2025)

System: 463943-066-T-J2-PDC tumor spheroids with HUVEC/MSC, viability
Test: Anticancer human tumor 463943-066-T-J2-PDC patient-derived colon adenocarcinoma cell line growth inhibition [TAK]
Conditions: for IC50: curve of first compound; for viability, T/C: stronger effect = lower value
Source text: Combinatorial screen of targeted agents with TAK-243 and ipatasertib in multi-cell type tumor spheroids
A high-throughput screen of multi-cell type tumor spheroids was designed to identify active combinations of targeted small molecules and TAK-243 or ipatasertib. Complex spheroids include a stromal component modeled by human endothelial cells (HUVEC) and fibroblasts modeled by human mesenchymal stem cells (MSCs). The concentration ranges selected for each drug and investigational agent were based upon clinically achievable concentrations if the clinical Cmax of the agent was known.
Compounds. The drugs and investigational agents: TAK-243 (785004), ipatasertib (767898), everolimus (733504), selumetinib (741078), bortezomib (756655), trametinib (758246), ixazomib (758254), vemurafenib (761431), dabrafenib (764134), sapanisertib (764658), alpelisib (765974), and copanlisib (816437), were obtained from the National Cancer Institute (NCI) Developmental Therapeutics Program Chemical Repository. The FDA-approved anticancer drug set is available from the NCI Developmental Therapeutics Program. […] The stock solutions were prepared in dimethyl sulfoxide (DMSO, Sigma-Aldrich, St. Louis, MO, cat. D2650) at 800-fold the tested concentration and stored at -70 degrees C prior to their use. All drugs and investigational agents were tested over a range starting from a high concentration at or near the clinical Cmax and decreasing in half-log increments. If the clinical Cmax for an agent had not been determined, the highest concentration tested was 10 microM.
NCI60 Cell Culture. NCI60 cell lines were obtained from the NCI Developmental Therapeutics Program Tumor Repository. For each lot of cells, the Repository performed Applied Biosystems AmpFLSTR Identifiler testing with PCR amplification to confirm consistency with the published Identifier STR profile for each cell line. Cells were kept in continuous culture for no more than 20 passages. The optimal seeding densities for each of the cell lines at each time point assessed were determined prior to performing the concentration response studies. Briefly, the NCI60 human tumor lines were grown as monolayers in RPMI 1640 medium supplemented with 10% FBS and 2 mmol/L L-glutamine.
An additional 2 lines were from the NCI60 cell line panel including melanomas, MALME-3M and SK-MEL-2. Pooled donor human umbilical vein endothelial cells (HUVEC, Lonza, cat. CC-2519) and human mesenchymal stem cells (hMSC, Lonza, cat. PT-2501) were purchased from Lonza (Walkersville, MD).
PDMR cell lines were grown in complete medium (DC medium): Dulbecco's modified Eagle's medium (DMEM)/F12 supplemented with 5% fetal bovine serum (FBS), 2 mM L-glutamine, 100 U/mL penicillin and 100 µg/ml streptomycin, 0.4 µg/ml hydrocortisone, 10 ng/ml epidermal growth factor (EGF) recombinant human protein, 24 µg/mL adenine, and 0.1 mg/mL primocin. During culture from frozen stock vials, PDMR cells were cultured in the same medium containing 10 µM Y-27632 (see Table 3). The PDCs were cultured in complete DMEM/F12 media without 10 microM Y-27632 dihydrochloride for at least two passages prior to the screen. The pooled donor HUVEC and hMSC were cultured in endothelial cell growth medium 2 (PromoCell, Heidelberg, Germany, cat. C-22011) and mesenchymal stem cell growth medium 2 (PromoCell, cat. C-28009), respectively. For all experiments, HUVEC and hMSC were used at passages </=5.
For the pre-screen, cell seeding densities were determined from a titration spanning the range from 5,000 to 313 cells per well. The mct-spheroids including 60% malignant cells, 25% HUVEC and 15% MSC dispensed as a mixture into U-bottom Ultra-Low Attachment 384-well plates (Corning, NY)
High-throughput Drug Combination Screening.
Prior to their inoculation into 384-well plates, malignant cells, HUVEC, and hMSC were removed from T flasks using TrypLE express (Thermo Fisher Scientific, cat. 12605036) and harvested by centrifugation for 5 min at 233 x g. […]
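Note: spheroids exposed to drugs for seven days.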
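Throughout, for viability, T/C: 100% = DMSO vehicle control wells.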

Question: CC(=O)Nc1cccc(-n2c(=O)n(C3CC3)c(=O)c3c(Nc4ccc(I)cc4F)n(C)c(=O)c(C)c32)c1 + CC(C)NCC(C(=O)N1CCN(c2ncnc3c2C(C)CC3O)CC1)c1ccc(Cl)cc1 was tested. Which IC50 (second compound 0.3 µM) did it give?
Answer: > 30 nM

Question: And the IC50 (second compound 0.949 µM)?
Answer: > 30 nM

Question: And the IC50 (second compound 3 µM)?
Answer: > 30 nM

Question: And the IC50 (second compound 9.49 µM)?
Answer: > 30 nM

Question: And the IC50 (second compound 30 µM)?
Answer: > 30 nM

Question: What about the viability, T/C (second compound 0.3 µM, first compound 94.9 pM) of the same compound?
Answer: 98.7%

Question: What about the viability, T/C (second compound 0.3 µM, first compound 0.0003 µM) of the same compound?
Answer: 94.3%

Question: What about the viability, T/C (second compound 0.3 µM, first compound 0.000949 µM) of the same compound?
Answer: 83.2%

Question: What about the viability, T/C (second compound 0.3 µM, first compound 0.003 µM) of the same compound?
Answer: 82.2%

Question: And the viability, T/C (second compound 0.3 µM, first compound 0.00949 µM)?
Answer: 71.5%

Question: And the viability, T/C (second compound 0.3 µM, first compound 0.03 µM)?
Answer: 65.2%

Question: And the viability, T/C (second compound 0.949 µM, first compound 94.9 pM)?
Answer: 95.2%

Question: What about the viability, T/C (second compound 0.949 µM, first compound 0.0003 µM) of the same compound?
Answer: 91.5%

Question: And the viability, T/C (second compound 0.949 µM, first compound 0.000949 µM)?
Answer: 84.1%

Question: And the viability, T/C (second compound 0.949 µM, first compound 0.003 µM)?
Answer: 83.9%

Question: And the viability, T/C (second compound 0.949 µM, first compound 0.00949 µM)?
Answer: 77.2%

Question: What about the viability, T/C (second compound 0.949 µM, first compound 0.03 µM) of the same compound?
Answer: 61.2%

Question: And the viability, T/C (second compound 3 µM, first compound 94.9 pM)?
Answer: 96.1%

Question: And the viability, T/C (second compound 3 µM, first compound 0.0003 µM)?
Answer: 96.3%

Question: And the viability, T/C (second compound 3 µM, first compound 0.000949 µM)?
Answer: 87.2%

Question: What about the viability, T/C (second compound 3 µM, first compound 0.003 µM) of the same compound?
Answer: 84.4%

Question: And the viability, T/C (second compound 3 µM, first compound 0.00949 µM)?
Answer: 72%

Question: What about the viability, T/C (second compound 3 µM, first compound 0.03 µM) of the same compound?
Answer: 57%

Question: What about the viability, T/C (second compound 9.49 µM, first compound 94.9 pM) of the same compound?
Answer: 88%

Question: What about the viability, T/C (second compound 9.49 µM, first compound 0.0003 µM) of the same compound?
Answer: 99%

Question: What about the viability, T/C (second compound 9.49 µM, first compound 0.000949 µM) of the same compound?
Answer: 90.3%

Question: What about the viability, T/C (second compound 9.49 µM, first compound 0.003 µM) of the same compound?
Answer: 79.5%

Question: And the viability, T/C (second compound 9.49 µM, first compound 0.00949 µM)?
Answer: 72.3%

Question: What about the viability, T/C (second compound 9.49 µM, first compound 0.03 µM) of the same compound?
Answer: 62.7%

Question: And the viability, T/C (second compound 30 µM, first compound 94.9 pM)?
Answer: 91.4%

Question: What about the viability, T/C (second compound 30 µM, first compound 0.0003 µM) of the same compound?
Answer: 90.3%

Question: What about the viability, T/C (second compound 30 µM, first compound 0.000949 µM) of the same compound?
Answer: 87.1%

Question: What about the viability, T/C (second compound 30 µM, first compound 0.003 µM) of the same compound?
Answer: 80.6%

Question: And the viability, T/C (second compound 30 µM, first compound 0.00949 µM)?
Answer: 69.1%

Question: What about the viability, T/C (second compound 30 µM, first compound 0.03 µM) of the same compound?
Answer: 53.6%

Question: How did the IC50 (second compound 0.3 µM) turn out when CC(C)CC(NC(=O)C(Cc1ccccc1)NC(=O)c1cnccn1)B(O)O (stereo not given) + CC(C)NCC(C(=O)N1CCN(c2ncnc3c2C(C)CC3O)CC1)c1ccc(Cl)cc1 was run?
Answer: > 10 nM

Question: And the IC50 (second compound 0.949 µM)?
Answer: > 10 nM

Question: And the IC50 (second compound 3 µM)?
Answer: > 10 nM

Question: What about the IC50 (second compound 9.49 µM) of the same compound?
Answer: > 10 nM

Question: And the IC50 (second compound 30 µM)?
Answer: > 10 nM

Question: And the viability, T/C (second compound 0.3 µM, first compound 31.6 pM)?
Answer: 98.3%

Question: And the viability, T/C (second compound 0.3 µM, first compound 0.0001 µM)?
Answer: 99.2%

Question: What about the viability, T/C (second compound 0.3 µM, first compound 0.000316 µM) of the same compound?
Answer: 92.3%

Question: What about the viability, T/C (second compound 0.3 µM, first compound 0.001 µM) of the same compound?
Answer: 91.4%

Question: And the viability, T/C (second compound 0.3 µM, first compound 0.00316 µM)?
Answer: 93.1%

Question: And the viability, T/C (second compound 0.3 µM, first compound 0.01 µM)?
Answer: 84.1%

Question: And the viability, T/C (second compound 0.949 µM, first compound 31.6 pM)?
Answer: 89.1%

Question: What about the viability, T/C (second compound 0.949 µM, first compound 0.0001 µM) of the same compound?
Answer: 81.8%

Question: And the viability, T/C (second compound 0.949 µM, first compound 0.000316 µM)?
Answer: 89.4%

Question: What about the viability, T/C (second compound 0.949 µM, first compound 0.001 µM) of the same compound?
Answer: 84.3%

Question: What about the viability, T/C (second compound 0.949 µM, first compound 0.00316 µM) of the same compound?
Answer: 85.2%

Question: What about the viability, T/C (second compound 0.949 µM, first compound 0.01 µM) of the same compound?
Answer: 77.3%

Question: And the viability, T/C (second compound 3 µM, first compound 31.6 pM)?
Answer: 90.5%

Question: And the viability, T/C (second compound 3 µM, first compound 0.0001 µM)?
Answer: 96%

Question: What about the viability, T/C (second compound 3 µM, first compound 0.000316 µM) of the same compound?
Answer: 97.3%

Question: What about the viability, T/C (second compound 3 µM, first compound 0.001 µM) of the same compound?
Answer: 94.4%

Question: And the viability, T/C (second compound 3 µM, first compound 0.00316 µM)?
Answer: 78.5%

Question: What about the viability, T/C (second compound 3 µM, first compound 0.01 µM) of the same compound?
Answer: 81.8%

Question: And the viability, T/C (second compound 9.49 µM, first compound 31.6 pM)?
Answer: 85.4%

Question: What about the viability, T/C (second compound 9.49 µM, first compound 0.0001 µM) of the same compound?
Answer: 95.5%

Question: And the viability, T/C (second compound 9.49 µM, first compound 0.000316 µM)?
Answer: 82.7%

Question: What about the viability, T/C (second compound 9.49 µM, first compound 0.001 µM) of the same compound?
Answer: 88.9%

Question: What about the viability, T/C (second compound 9.49 µM, first compound 0.00316 µM) of the same compound?
Answer: 82.7%

Question: What about the viability, T/C (second compound 9.49 µM, first compound 0.01 µM) of the same compound?
Answer: 77%

Question: And the viability, T/C (second compound 30 µM, first compound 31.6 pM)?
Answer: 88.2%

Question: What about the viability, T/C (second compound 30 µM, first compound 0.0001 µM) of the same compound?
Answer: 85.3%

Question: And the viability, T/C (second compound 30 µM, first compound 0.000316 µM)?
Answer: 91.4%

Question: What about the viability, T/C (second compound 30 µM, first compound 0.001 µM) of the same compound?
Answer: 88.2%

Question: And the viability, T/C (second compound 30 µM, first compound 0.00316 µM)?
Answer: 88.7%

Question: And the viability, T/C (second compound 30 µM, first compound 0.01 µM)?
Answer: 70.2%
